From patent publication US20210318318A1, “Kinase Activity In Tumors” (Institute For Cancer Research d/b/a The Research Institute …, priority 2018, published 2021)

Legend:
[1] = tested on: HGSOC cells; experiment: Apoptosis in inhibitor-treated HGSOC cells; format: cell-based, human; conditions: increasing doses
[2] = target: T1, CDK8 (Homo sapiens, UniProt P49336); experiment: MIB/MS kinome profiling of inhibitor-treated OVSAHO cells; format: cell-based; conditions: 2 μM, 4 hours
T1 construct: endogenous in cells; host or cells: OVSAHO
T1 sequence (P49336 whole entry): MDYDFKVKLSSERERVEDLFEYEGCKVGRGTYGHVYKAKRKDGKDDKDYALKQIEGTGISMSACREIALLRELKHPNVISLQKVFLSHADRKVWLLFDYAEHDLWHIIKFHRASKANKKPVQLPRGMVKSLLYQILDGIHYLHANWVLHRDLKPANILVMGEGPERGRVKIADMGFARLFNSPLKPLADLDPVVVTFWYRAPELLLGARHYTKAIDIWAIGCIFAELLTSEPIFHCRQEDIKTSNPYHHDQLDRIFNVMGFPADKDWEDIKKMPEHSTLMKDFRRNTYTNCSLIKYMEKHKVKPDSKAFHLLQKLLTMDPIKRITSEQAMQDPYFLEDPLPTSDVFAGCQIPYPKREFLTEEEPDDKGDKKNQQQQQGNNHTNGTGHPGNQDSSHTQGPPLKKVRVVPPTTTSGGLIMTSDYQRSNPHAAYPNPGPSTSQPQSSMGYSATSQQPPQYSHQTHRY
T1 sequence (P24863 whole entry partner): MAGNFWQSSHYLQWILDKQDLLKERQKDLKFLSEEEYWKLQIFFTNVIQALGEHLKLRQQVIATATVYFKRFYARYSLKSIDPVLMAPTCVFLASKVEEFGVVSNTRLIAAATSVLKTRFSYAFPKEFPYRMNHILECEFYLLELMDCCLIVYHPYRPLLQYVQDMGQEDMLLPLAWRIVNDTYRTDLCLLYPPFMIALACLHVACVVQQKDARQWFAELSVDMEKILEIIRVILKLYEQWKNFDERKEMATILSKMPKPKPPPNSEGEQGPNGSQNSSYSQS
Description: (§1) OVSAHO cells were treated with 2 μM of inhibitor for 4 hours and analyzed by MIB/MS. Scatterplot depicts difference in kinase MIB-binding of drug treated relative to control DMSO as determined by Students T-test.
(§2) MIB-based kinome profiling was performed on several of these molecules in HGSOC cells to determine kinome-wide inhibition profiles.
(§3) Experiments using MIB/MS were performed as previously described (Duncan et al., Cell, 2012, 149, 307-321; and Kurimchak et al., Cell Reports, 2016, 16, 1273-1286). Briefly, cells or tumors were lysed on ice in buffer containing 50 mM HEPES (pH 7.5), 0.5% Triton X-100, 150 mM NaCl, 1 mM EDTA, 1 mM EGTA, 10 mM sodium fluoride, 2.5 mM sodium orthovanadate, 1× protease inhibitor cocktail (Roche), and 1% each of phosphatase inhibitor cocktails 2 and 3 (Sigma). Particulate was removed by centrifugation of lysates at 13,000 rpm for 10 minutes at 4° C. and filtration through 0.2 μm syringe filters. Protein concentrations were determined by BCA analysis (Thermo). To compare kinome signatures within and across such large sample sizes, a super-SILAC method was designed (Neubert et al., Nat. Meth., 2010, 7, 361-362) consisting of a cocktail of cancer cell lines that encompasses the activity of the “cancer kinome” to be used as a control for individual samples. Five cancer cell lines were selected from the NCI-60 panel (UACC257, MOLT4, COL0205, ACHN and PC3) that differed in their origin, gene expression patterns and mutation status. The cancer cell lines were labeled using SILAC and mixed equally providing a diverse SILAC ([^13C6,^15N4] arginine (Arg^10) and […] (Lys^8)) heavy kinome reference standard (HKS) to be used repeatedly in kinome profiling assays. An equal amount of the HKS was added to the non-labeled sample (cell, tumor or normal tissue) providing a quantitative strategy to compare kinome activity/levels across samples, amongst treatments and, importantly, across time. Endogenous kinases were isolated by flowing lysates over kinase inhibitor-conjugated Sepharose beads (purvalanol B, VI16832, PP58 and CTx-0294885 beads were used) in 10 ml gravity-flow columns. After 2×10 ml column washes in high-salt buffer and 1×10 ml wash in low-salt buffer (containing 50 mM HEPES (pH 7.5), 0.5% Triton X-100, 1 mM EDTA, 1 mM EGTA, and 10 mM sodium fluoride, and 1M NaCl or 150 mM NaCl, respectively), retained kinases were eluted from the column by boiling in 2×500 μL of 0.5% SDS, 0.1 M TrisHCl (pH 6.8), and 1% 2-mercaptoethanol. Eluted peptides were reduced by incubation with 5 mM DTT at 60° C. for 25 minutes, alkylated with 20 mM iodoacetamide at room temperature for 30 minutes in the dark and alkylation was quenched with DTT. Samples were concentrated to approximately 100 μL with Millipore 10 kD cutoff spin concentrators. Detergent was removed by chloroform/methanol extraction, and the protein pellet was resuspended in 100 mM ammonium bicarbonate and digested with sequencing-grade modified trypsin (Promega) overnight at 37° C. […]
(§4) Proteolytic peptides were resuspended in 0.1% formic acid and separated with a Thermo RSLC Ultimate 3000 on a Thermo Easy-Spray C18 PepMap 75 μm×50 cm C-18 2 μm column with a 240 minute gradient of 4-25% acetonitrile with 0.1% formic acid at 300 nL/min and 50° C. Eluted peptides were analyzed by a Thermo Q Exactive plus mass spectrometer utilizing a top 15 methodology in which the 15 most intense peptide precursor ions were subjected to fragmentation. […]

[3] = target: T2, MAP3K12 (Homo sapiens, UniProt Q12852); experiment: as above; format: cell-based; conditions: 2 μM, 4 hours
T2 construct: endogenous in cells; host or cells: OVSAHO
T2 sequence (Q12852 1-859): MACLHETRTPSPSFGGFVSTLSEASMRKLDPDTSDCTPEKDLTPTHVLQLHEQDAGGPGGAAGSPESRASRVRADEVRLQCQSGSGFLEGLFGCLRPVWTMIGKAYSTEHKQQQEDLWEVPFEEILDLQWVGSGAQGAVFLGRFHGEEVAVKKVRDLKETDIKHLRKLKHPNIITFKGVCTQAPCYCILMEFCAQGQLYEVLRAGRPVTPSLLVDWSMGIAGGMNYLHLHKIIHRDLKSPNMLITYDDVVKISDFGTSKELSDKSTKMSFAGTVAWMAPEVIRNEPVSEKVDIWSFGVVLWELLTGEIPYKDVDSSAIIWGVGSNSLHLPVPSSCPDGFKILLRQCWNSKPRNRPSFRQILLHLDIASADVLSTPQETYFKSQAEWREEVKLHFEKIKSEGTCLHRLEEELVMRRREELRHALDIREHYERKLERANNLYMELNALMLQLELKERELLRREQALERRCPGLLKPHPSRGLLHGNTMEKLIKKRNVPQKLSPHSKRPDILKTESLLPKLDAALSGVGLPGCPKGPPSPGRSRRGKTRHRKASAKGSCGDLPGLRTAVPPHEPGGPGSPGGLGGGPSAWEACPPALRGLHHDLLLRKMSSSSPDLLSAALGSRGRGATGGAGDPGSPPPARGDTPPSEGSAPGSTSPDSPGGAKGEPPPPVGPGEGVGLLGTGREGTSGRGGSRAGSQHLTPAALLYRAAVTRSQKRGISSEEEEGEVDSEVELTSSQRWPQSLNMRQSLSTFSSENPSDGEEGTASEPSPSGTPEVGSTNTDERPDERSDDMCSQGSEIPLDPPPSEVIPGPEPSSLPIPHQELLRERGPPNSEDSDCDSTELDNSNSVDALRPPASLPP
Description: as §1, §2, §3, §4

[4] = target: T3, MRCKB (Homo sapiens, UniProt Q9Y5S2); experiment: as above; format: cell-based; conditions: 2 μM, 4 hour treatment
T3 construct: endogenous in cells; host or cells: OVSAHO
T3 sequence (Q9Y5S2 whole entry): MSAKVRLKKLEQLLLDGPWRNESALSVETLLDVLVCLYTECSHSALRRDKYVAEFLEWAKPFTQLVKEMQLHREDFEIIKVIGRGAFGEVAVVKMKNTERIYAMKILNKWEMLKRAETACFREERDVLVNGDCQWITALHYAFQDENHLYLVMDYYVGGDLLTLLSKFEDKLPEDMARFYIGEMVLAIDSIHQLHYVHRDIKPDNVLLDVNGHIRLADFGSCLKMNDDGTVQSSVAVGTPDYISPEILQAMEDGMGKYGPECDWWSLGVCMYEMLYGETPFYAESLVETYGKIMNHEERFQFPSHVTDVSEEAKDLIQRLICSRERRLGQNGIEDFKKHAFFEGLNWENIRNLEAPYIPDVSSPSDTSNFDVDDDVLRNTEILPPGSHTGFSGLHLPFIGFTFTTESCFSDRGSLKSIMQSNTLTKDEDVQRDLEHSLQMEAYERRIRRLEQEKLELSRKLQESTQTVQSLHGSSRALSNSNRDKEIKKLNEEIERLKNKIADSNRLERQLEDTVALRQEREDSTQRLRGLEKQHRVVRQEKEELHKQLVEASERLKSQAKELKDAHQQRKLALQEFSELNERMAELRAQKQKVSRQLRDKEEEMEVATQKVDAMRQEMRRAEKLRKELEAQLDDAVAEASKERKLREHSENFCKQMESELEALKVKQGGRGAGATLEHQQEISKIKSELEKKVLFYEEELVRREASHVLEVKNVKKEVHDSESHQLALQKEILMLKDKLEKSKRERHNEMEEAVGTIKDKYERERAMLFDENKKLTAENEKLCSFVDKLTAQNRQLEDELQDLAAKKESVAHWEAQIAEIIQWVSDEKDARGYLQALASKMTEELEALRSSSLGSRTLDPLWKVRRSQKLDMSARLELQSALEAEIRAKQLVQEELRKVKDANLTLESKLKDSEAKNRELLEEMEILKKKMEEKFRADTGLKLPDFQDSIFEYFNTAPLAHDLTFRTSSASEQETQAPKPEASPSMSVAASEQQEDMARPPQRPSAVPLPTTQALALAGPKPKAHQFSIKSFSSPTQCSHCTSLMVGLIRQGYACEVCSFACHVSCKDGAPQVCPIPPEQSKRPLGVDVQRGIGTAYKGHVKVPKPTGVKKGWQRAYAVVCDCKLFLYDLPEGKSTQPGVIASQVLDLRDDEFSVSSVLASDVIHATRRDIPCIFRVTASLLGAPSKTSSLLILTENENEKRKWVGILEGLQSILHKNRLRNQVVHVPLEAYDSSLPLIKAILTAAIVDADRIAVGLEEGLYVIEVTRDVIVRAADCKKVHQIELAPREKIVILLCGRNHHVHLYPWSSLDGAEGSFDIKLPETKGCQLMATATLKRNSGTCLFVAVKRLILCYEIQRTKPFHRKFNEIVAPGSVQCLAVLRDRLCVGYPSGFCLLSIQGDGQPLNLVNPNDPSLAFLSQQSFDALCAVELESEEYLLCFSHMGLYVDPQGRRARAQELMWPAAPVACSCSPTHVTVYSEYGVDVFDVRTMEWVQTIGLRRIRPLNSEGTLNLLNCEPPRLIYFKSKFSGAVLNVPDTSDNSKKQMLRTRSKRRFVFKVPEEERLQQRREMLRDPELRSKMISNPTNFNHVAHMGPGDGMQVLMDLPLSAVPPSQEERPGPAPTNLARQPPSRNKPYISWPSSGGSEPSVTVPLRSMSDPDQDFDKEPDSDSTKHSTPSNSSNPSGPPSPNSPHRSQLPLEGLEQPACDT
Description: OVSAHO cells were treated with inhibitors at a dose of 2 μM for 4 hours and kinase inhibition profiles determined by MIB/MS. Bar graph depicts % of kinase bound to MIBs relative to DMSO control as determined by label free quantitation.
as §1, §2
Experiments using MIB/MS were performed as previously described (Duncan et al., Cell, 2012, 149, 307-321; and Kurimchak et al., Cell Reports, 2016, 16, 1273-1286). Briefly, cells or tumors were lysed on ice in buffer containing 50 mM HEPES (pH 7.5), 0.5% Triton X-100, 150 mM NaCl, 1 mM EDTA, 1 mM EGTA, 10 mM sodium fluoride, 2.5 mM sodium orthovanadate, 1× protease inhibitor cocktail (Roche), and 1% each of phosphatase inhibitor cocktails 2 and 3 (Sigma). Particulate was removed by centrifugation of lysates at 13,000 rpm for 10 minutes at 4° C. and filtration through 0.2 μm syringe filters. Protein concentrations were determined by BCA analysis (Thermo). To compare kinome signatures within and across such large sample sizes, a super-SILAC method was designed (Neubert et al., Nat. Meth., 2010, 7, 361-362) consisting of a cocktail of cancer cell lines that encompasses the activity of the “cancer kinome” to be used as a control for individual samples. Five cancer cell lines were selected from the NCI-60 panel (UACC257, MOLT4, COL0205, ACHN and PC3) that differed in their origin, gene expression patterns and mutation status. The cancer cell lines were labeled using SILAC and mixed equally providing a diverse SILAC ([^13C6,^15N4] arginine (Arg^10) and […] (Lys^8)) heavy kinome reference standard (HKS) to be used repeatedly in kinome profiling assays. An equal amount of the HKS was added to the non-labeled sample (cell, tumor or normal tissue) providing a quantitative strategy to compare kinome activity/levels across samples, amongst treatments and, importantly, across time. […]
Proteolytic peptides were resuspended in 0.1% formic acid and separated with a Thermo RSLC Ultimate 3000 on a Thermo Easy-Spray C18 PepMap 75 μm×50 cm C-18 2 μm column with a 240 minute gradient of 4-25% acetonitrile with 0.1% formic acid at 300 nL/min and 50° C. Eluted peptides were analyzed by a Thermo Q Exactive plus mass spectrometer utilizing a top 15 methodology in which the 15 most intense peptide precursor ions were subjected to fragmentation.

Cc1[nH]nc2ccc(-c3cncc(OC[C@@H](N)Cc4ccccc4)c3)cc12 [A-674563]
apoptosis [1]: induced apoptosis | MIB-binding of CDK8 [2]: inhibited | MIB-binding of MAP3K12 [3]: inhibited | MIB-binding of MRCKB relative to DMSO [4]: Reduced MIB-binding
